Measurements from patent US8729269B2, “Substituted piperidino phenyloxazolidinones having antimicrobial activity with improved in vivo efficacy” (Wockhardt Limited, priority 2003, dated 2014).
≈ marks a conversion by molar mass, not a printed value.

What was measured:
[1] = tested on: Streptococcus pneumoniae 49619 (SPN 49619); assay: Minimum Inhibitory Concentration (MIC) determination, agar with 5% sheep blood; format: cell-based; details: Mueller Hinton agar containing 5% sheep blood
Description: (§1) Overnight grown cultures of Methicilin resistant Staphylococcus aureus 32 (MRSA 32), Methicilin resistant Staphylococcus epidermidis 118 (MRSE 118), Vancomycin resistant enterococci 303 (VRE 303) in Tryptic Soya broth were diluted in Mueller Hinton Broth to give optical density matching with MacFarland tube 0.5 standard. Cultures were further diluted 1:10 in Mueller Hinton broth. Using Denley's multipoint inoculator, 10^4 cells were deposited on Mueller Hinton agar (Difco) containing range of 2 fold dilutions of test compounds. These plates were incubated for 24 hrs at 35° C. and MIC results recorded. MIC is defined as minimum drug concentration that inhibits test organisms. For determining MIC of test compounds against Streptococcus pneumoniae 49619 (SPN 49619) and Streptococcus pyogenes 801 (SPY 801), Mueller Hinton agar containing 5% sheep blood was employed.

[2] = tested on: Streptococcus pyogenes 801 (SPY 801); assay: as above; format: cell-based; details: Mueller Hinton agar containing 5% sheep blood
Description: as §1

[3] = tested on: Vancomycin resistant enterococci 303 (VRE 303); assay: Minimum Inhibitory Concentration (MIC) determination, agar dilution; format: cell-based; details: Enterococcus, Mueller Hinton agar, 24 hrs at 35° C.
Description: as §1

[4] = tested on: Methicilin resistant Staphylococcus aureus 32 (MRSA 32); assay: as above; format: cell-based; details: Mueller Hinton agar, 24 hrs at 35° C.
Description: as §1

[5] = tested on: Methicilin resistant Staphylococcus epidermidis 118 (MRSE 118); assay: as above; format: cell-based; details: Mueller Hinton agar, 24 hrs at 35° C.
Description: as §1

[6] = tested on: methicillin resistant Staphylococcus aureus strain MRSA 32; assay: Murine Assay Procedure (in vivo efficacy, MRSA 32 infection); details: swiss mice infected intraperitoneally with MRSA 32, oral gavage 1 h after infection, repeat dose 3 hrs later, percentage survival on Day 7
Description: Oxazolidinone new chemical entities (NCEs) were evaluated for their in vivo efficacy in a murine infection caused by multi-drug resistant, methicillin resistant Staphylococcus aureus strain, referred to as MRSA 32, a clinical isolate obtained from a hospitalized patient. The procedure used for the murine assay is as follows:
Four weeks old swiss mice of 18-22 gm body weight were infected with MRSA 32 strain suspended in 5% Hog gastric mucin. The infecting dose of bacteria was set at 1-2×10^8 CFU/animal. The infecting dose was administered in 0.5 ml volume injected into peritonial cavity of mice. The treatment with oxazolidinone NCEs was started one hour after infection by administering 100-200 μl of the suspensions of oxazolidinone compounds in 5% Tween 80 by oral gavage. A repeat dose was similarly administered 3 hrs later. Each oxazolidinone NCE was tested at 2-3 different dosages in the range of 2.5 mg/kg to 20 mg/kg. In each dose group 6 mice were included. As an infection control group 12 mice were infected with MRSA 32 strain without giving any treatment. For compounds affording protection of MRSA infected mice, ED50 dosages were calculated on the basis of percentage survival on Day 7 after infection.

Row | Compound | MIC [1] | MIC [2] | MIC [3] | MIC [4] | MIC [5] | ED50 [6]
1 | CC(=O)NC[C@H]1CN(c2ccc(N3CCC(O)(CN=[N+]=[N-])CC3)c(F)c2)C(=O)O1 [Example 25, (S)—N-{3-[4-(4-Azidomethyl-4-hydroxypiperidin-1-yl)-3-fluorophenyl]-2-oxo-oxazolidin-5-ylmethyl}-acetamide] | 2 µg/mL (≈ 4.92 µM) | 2 µg/mL (≈ 4.92 µM) | 2 µg/mL (≈ 4.92 µM) | 4 µg/mL (≈ 9.84 µM) | 1 µg/mL (≈ 2.46 µM) | 5 mg/kg
2 | CC(=S)NC[C@H]1CN(c2ccc(N3CCC(C#N)(Nc4ccc(C#N)cc4)CC3)c(F)c2)C(=O)O1 [Example 87, (S)—N-{3-[4-(4-(1-(4-Cyanophenylamino))-4-cyanopiperidin-1-yl)-3-fluorophenyl]-2-oxo-oxazolidin-5-ylmethyl}-thioacetamide] | 0.8 µg/mL (≈ 1.62 µM) | 0.8 µg/mL (≈ 1.62 µM) | 0.4 µg/mL (≈ 0.812 µM) | 1 µg/mL (≈ 2.03 µM) | 0.5 µg/mL (≈ 1.02 µM) | 10 mg/kg
3 | CC(=O)NC[C@H]1CN(c2ccc(N3CCC4(CC3)C[C@H]4C#N)c(F)c2)C(=O)O1 [Example 98, (1R,5S)—N-{3-[4-(1-cyano-6-aza-spiro[2.5]oct-6-yl)-3-fluorophenyl]-2-oxo-oxazolidin-5-ylmethyl}-acetamide] | 1 µg/mL (≈ 2.59 µM) | 1 µg/mL (≈ 2.59 µM) | 2 µg/mL (≈ 5.18 µM) | 2 µg/mL (≈ 5.18 µM) | 1 µg/mL (≈ 2.59 µM) | 5 mg/kg
4 | CC(=O)NC[C@H]1CN(c2ccc(N3CCC4(CC3)SCCN4C)c(F)c2)C(=O)O1 [Example 113, (S)—N-{3-[4-(8-aza-1-thia-4-(N-methyl)-spiro[4.5]dec-8-yl)-3-fluorophenyl]-2-oxo-oxazolidin-5-ylmethyl}-acetamide] | 2 µg/mL (≈ 4.73 µM) | 2 µg/mL (≈ 4.73 µM) | 4 µg/mL (≈ 9.47 µM) | 4 µg/mL (≈ 9.47 µM) | 1 µg/mL (≈ 2.37 µM) | 10 mg/kg
5 | CC(=O)NC[C@H]1CN(c2ccc(N3CCC4(CC3)COCO4)c(F)c2)C(=O)O1 [Example 125, (S)—N-{3-[4-(1,3-dioxa-8-aza-spiro[4.5]dec-8-yl)-3-fluorophenyl]-2-oxo-oxazolidin-5-ylmethyl}-acetamide] | 2 µg/mL (≈ 5.08 µM) | 2 µg/mL (≈ 5.08 µM) | 4 µg/mL (≈ 10.2 µM) | 4 µg/mL (≈ 10.2 µM) | 2 µg/mL (≈ 5.08 µM) | 10 mg/kg
6 | CC(=O)NC[C@H]1CN(c2ccc(N3CCC4(CC3)COCCCO4)c(F)c2)C(=O)O1 [Example 164] | 4 µg/mL (≈ 9.49 µM) | 4 µg/mL (≈ 9.49 µM) | 8 µg/mL (≈ 19 µM) | 4 µg/mL (≈ 9.49 µM) | 2 µg/mL (≈ 4.75 µM) | 10 mg/kg
7 | CS(=O)(=O)OC[C@H]1CN(c2cc(F)c(N3CCC(=O)CC3)c(F)c2)C(=O)O1 [Example 169, (R)—N-{3-[4-(4-oxo-piperidin-1-yl)-3,5-difluorophenyl]-2-oxo-oxazolidin-5-ylmethyl}-methanesulfonate] | 0.5 µg/mL (≈ 1.24 µM) | 2 µg/mL (≈ 4.95 µM) | 1 µg/mL (≈ 2.47 µM) | 0.5 µg/mL (≈ 1.24 µM) | 0.25 µg/mL (≈ 0.618 µM) | 10 mg/kg
8 | CS(=O)(=O)OC[C@H]1CN(c2ccc(N3CCC(O)CC3)c(F)c2)C(=O)O1 [Example 172, (R)—N-{3-[4-(4-hydroxy-piperidin-1-yl)-3-fluorophenyl]-2-oxo-oxazolidin-5-ylmethyl}-methanesulfonate] | > 8 µg/mL | > 8 µg/mL | 16 µg/mL (≈ 41.2 µM) | 8 µg/mL (≈ 20.6 µM) | 8 µg/mL (≈ 20.6 µM) | 10 mg/kg
9 | CS(=O)(=O)OC[C@H]1CN(c2cc(F)c(N3CCC(O)CC3)c(F)c2)C(=O)O1 [Example 173, (R)—N-{3-[4-(4-hydroxy-piperidin-1-yl)-3,5-difluorophenyl]-2-oxo-oxazolidin-5-ylmethyl}-methanesulfonate] | 2 µg/mL (≈ 4.92 µM) | 4 µg/mL (≈ 9.84 µM) | 4 µg/mL (≈ 9.84 µM) | 2 µg/mL (≈ 4.92 µM) | 2 µg/mL (≈ 4.92 µM) | 5 mg/kg

More lines, in order of falling MIC [1], values ahead:

Row | MIC [1] | MIC [2] | MIC [3] | MIC [4] | MIC [5] | Compound | ED50 [6]
10 | 16 µg/mL (≈ 37.3 µM) | 16 µg/mL (≈ 37.3 µM) | 8 µg/mL (≈ 18.7 µM) | 8 µg/mL (≈ 18.7 µM) | 8 µg/mL (≈ 18.7 µM) | C=CCC1(O)CCN(c2ccc(N3C[C@H](COS(C)(=O)=O)OC3=O)cc2F)CC1 [Example 41] | 10 mg/kg
11 | 8 µg/mL (≈ 18.6 µM) | 8 µg/mL (≈ 18.6 µM) | 16 µg/mL (≈ 37.2 µM) | 8 µg/mL (≈ 18.6 µM) | 4 µg/mL (≈ 9.29 µM) | CS(=O)(=O)OC[C@H]1CN(c2ccc(N3CCC4(CC3)COCO4)c(F)c2)C(=O)O1 [Example 129, (R)—N-{3-[4-(1,3-dioxa-8-aza-spiro[4.5]dec-8-yl)-3-fluorophenyl]-2-oxo-oxazolidin-5-ylmethyl}-methanesulfonate] | 5 mg/kg
12 | 4 µg/mL (≈ 8.92 µM) | 4 µg/mL (≈ 8.92 µM) | 4 µg/mL (≈ 8.92 µM) | 4 µg/mL (≈ 8.92 µM) | 2 µg/mL (≈ 4.46 µM) | CS(=O)(=O)OC[C@H]1CN(c2cc(F)c(N3CCC4(CC3)OCCO4)c(F)c2)C(=O)O1 [Example 146, (R)—N-{3-[4-(1,4-dioxa-8-aza-spiro[4.5]dec-8-yl)-3,5-difluorophenyl]-2-oxo-oxazolidin-5-ylmethyl}-methanesulfonate] | 2.5 mg/kg
13 | 4 µg/mL (≈ 9.82 µM) | 4 µg/mL (≈ 9.82 µM) | 8 µg/mL (≈ 19.6 µM) | 4 µg/mL (≈ 9.82 µM) | 1 µg/mL (≈ 2.45 µM) | CC(=O)NC[C@H]1CN(c2ccc(N3CCC4(CC3)COCCO4)c(F)c2)C(=O)O1 [Example 160, (S)—N-{3-[4-(1,4-dioxa-9-aza-spiro[5.5]undec-9-yl)-3-fluorophenyl]-2-oxo-oxazolidin-5-ylmethyl}-acetamide] | 10 mg/kg
14 | 4 µg/mL (≈ 10.4 µM) | 4 µg/mL (≈ 10.4 µM) | 4 µg/mL (≈ 10.4 µM) | 4 µg/mL (≈ 10.4 µM) | 2 µg/mL (≈ 5.18 µM) | CS(=O)(=O)OC[C@H]1CN(c2ccc(N3CCC(=O)CC3)c(F)c2)C(=O)O1 [Example 168, (R)—N-{3-[4-(4-oxo-piperidin-1-yl)-3-fluorophenyl]-2-oxo-oxazolidin-5-ylmethyl}-methanesulfonate] | 10 mg/kg
15 | 4 µg/mL (≈ 10.3 µM) | 4 µg/mL (≈ 10.3 µM) | 8 µg/mL (≈ 20.6 µM) | 4 µg/mL (≈ 10.3 µM) | 2 µg/mL (≈ 5.15 µM) | CC(=O)NC[C@H]1CN(c2ccc(N3CCC(O)(CN=[N+]=[N-])CC3)cc2)C(=O)O1 [Example 178, (S)—N-{3-[4-(4-azidomethyl-4-hydroxy-piperidin-1-yl)-phenyl]-2-oxo-oxazolidin-5-ylmethyl}-acetamide] | 10 mg/kg
16 | 2 µg/mL (≈ 5.06 µM) | 2 µg/mL (≈ 5.06 µM) | 4 µg/mL (≈ 10.1 µM) | 8 µg/mL (≈ 20.2 µM) | 4 µg/mL (≈ 10.1 µM) | COCC1(O)CCN(c2ccc(N3C[C@H](CNC(C)=O)OC3=O)cc2F)CC1 [Example 33, (S)—N-{3-[4-(4-Methoxymethyl-4-hydroxypiperidin-1-yl)-3-fluorophenyl]-2-oxo-oxazolidin-5-ylmethyl}-acetamide] | 10 mg/kg
17 | 2 µg/mL (≈ 4.71 µM) | 2 µg/mL (≈ 4.71 µM) | 2 µg/mL (≈ 4.71 µM) | 4 µg/mL (≈ 9.42 µM) | 1 µg/mL (≈ 2.36 µM) | CC(=O)NC[C@H]1CN(c2ccc(N3CCC4(CC3)NCC[S+]4[O-])c(F)c2)C(=O)O1 (stereo partly drawn) [Example 112, (S)—N-{3-[4-(4,8-diaza-1-sulfinyl-spiro[4.5]dec-8-yl)-3-fluorophenyl]-2-oxo-oxazolidin-5-ylmethyl}-acetamide] | 10 mg/kg
18 | 2 µg/mL (≈ 4.86 µM) | 2 µg/mL (≈ 4.86 µM) | 4 µg/mL (≈ 9.72 µM) | 4 µg/mL (≈ 9.72 µM) | 2 µg/mL (≈ 4.86 µM) | CC(=O)NC[C@H]1CN(c2cc(F)c(N3CCC4(CC3)OCCO4)c(F)c2)C(=O)O1 [Example 130, (S)—N-{3-[4-(1,4-dioxa-8-aza-spiro[4.5]dec-8-yl)-3,5-difluorophenyl]-2-oxo-oxazolidin-5-ylmethyl}-acetamide] | 5 mg/kg
19 | 2 µg/mL (≈ 4.86 µM) | 2 µg/mL (≈ 4.86 µM) | 4 µg/mL (≈ 9.72 µM) | 4 µg/mL (≈ 9.72 µM) | 2 µg/mL (≈ 4.86 µM) | CC(=O)NC[C@H]1CN(c2ccc(N3CCC4(OCCO4)C(F)C3)c(F)c2)C(=O)O1 (stereo partly drawn) [Example 133, (S)—N-{3-[4-(1,4-dioxa-6-fluoro-8-aza-spiro[4.5]dec-8-yl)-3-fluorophenyl]-2-oxo-oxazolidin-5-ylmethyl}-acetamide] | 5 mg/kg
20 | 1 µg/mL (≈ 2.56 µM) | 1 µg/mL (≈ 2.56 µM) | 4 µg/mL (≈ 10.2 µM) | 4 µg/mL (≈ 10.2 µM) | 1 µg/mL (≈ 2.56 µM) | CC(=O)NC[C@H]1CN(c2ccc(N3CCC(O)(CC#N)CC3)c(F)c2)C(=O)O1 [Example 21, (S)—N-{3-[4-(4-Cyanomethyl-4-hydroxypiperidin-1-yl)-3-fluorophenyl]-2-oxo-oxazolidin-5-ylmethyl}-acetamide] | 2.5 mg/kg
21 | 0.5 µg/mL (≈ 1.29 µM) | 0.5 µg/mL (≈ 1.29 µM) | 2 µg/mL (≈ 5.18 µM) | 2 µg/mL (≈ 5.18 µM) | 1 µg/mL (≈ 2.59 µM) | CC(=O)NC[C@H]1CN(c2ccc(N3CCC4(CC3)C[C@@H]4C#N)c(F)c2)C(=O)O1 [Example 99, (1S,5S)—N-{3-[4-(1-cyano-6-aza-spiro[2.5]oct-6-yl)-3-fluorophenyl]-2-oxo-oxazolidin-5-ylmethyl}-acetamide] | 5 mg/kg
